Results taken from ChEMBL document CHEMBL3877294, “Discovery of Ruzasvir (MK-8408): A Potent, Pan-Genotype HCV NS5A Inhibitor with Optimized Activity against Common Resistance-Associated Polymorphisms” (J Med Chem, 2017).
Changes are numbered by the printed parent chain.

How the values were obtained:
[1] = Plasma clearance in dog at 1 mg/kg, iv measured after 24 hrs by LC/MS method; format: ADME, organism-based, Canis lupus familiaris
[2] = Drug uptake in rat at 10 mg/kg, po measured at 24 hrs post dose by LC/MS method; format: ADME, organism-based; details: in vivo, read-out: Drug uptake
[3] = Oral bioavailability in rat at 10 mg/kg measured after 24 hrs by LC/MS method; format: ADME, organism-based; details: in vivo
[4] = system: Huh-7; assay: Inhibition of HCV genotype-1a NS5A infected in human HuH7 cells by luciferase reporter gene assay; format: cell-based; details: Hepatitis C virus subtype 1a
[5] = system: Huh-7; assay: Inhibition of HCV genotype-2b NS5A harboring methionine at position 31 infected in human HuH7 cells by luciferase reporter gene assay; format: cell-based; details: Hepatitis C virus subtype 2b
[6] = Selectivity ratio for EC90 for HCV genotype-3a NS5A to EC90 for HCV genotype-1a NS5A
[7] = AUC in rat at 10 mg/kg, po measured after 24 hrs by LC/MS method; format: ADME, organism-based; set-up: time < 24 hr, dose 10 mg/kg, route oral; details: in vivo
[8] = system: Nonstructural protein 5A (Hepatitis C virus), Q5L478 [UNDEFINED MUTATION]; assay: Inhibition of HCV genotype-1a NS5A L31V mutant infected in human HuH7 cells by luciferase reporter gene assay; format: cell-based; details: Hepatitis C virus subtype 1a; Huh-7
[9] = Half life in rat at 2 mg/kg, iv by LC/MS method; format: ADME, organism-based; details: in vivo
[10] = system: Huh-7; assay: Inhibition of HCV genotype-4a NS5A infected in human HuH7 cells by luciferase reporter gene assay; format: cell-based; details: Hepatitis C virus subtype 4a
[11] = Half life in dog at 1 mg/kg, iv by LC/MS method; format: ADME, organism-based, Canis lupus familiaris; details: in vivo
[12] = Plasma clearance in rat at 2 mg/kg, iv measured after 24 hrs by LC/MS method; format: ADME, organism-based
[13] = Selectivity ratio for EC90 for HCV genotype-4a NS5A to EC90 for HCV genotype-1a NS5A
[14] = Selectivity ratio for EC90 for HCV genotype-2b NS5A harboring methionine at position 31 to EC90 for HCV genotype-1a NS5A
[15] = AUC (0 to t) in dog at 5 mg/kg, po measured after 24 hrs by LC/MS method; format: ADME, organism-based, Canis lupus familiaris; set-up: time < 24 hr, dose 5 mg/kg, route oral; details: in vivo
[16] = system: Hepatitis C virus subtype 1a; assay: Selectivity ratio for EC90 for HCV genotype-1a NS5A Y93H mutant to EC90 for HCV genotype-1a NS5A
[17] = system: Huh-7; assay: Inhibition of HCV genotype-3a NS5A infected in human HuH7 cells by luciferase reporter gene assay; format: cell-based; details: Hepatitis C virus subtype 3a
[18] = system: T1, Nonstructural protein 5A (Hepatitis C virus), Q5L478 [Y93H]; assay: Inhibition of HCV genotype-1a NS5A Y93H mutant infected in human HuH7 cells by luciferase reporter gene assay; format: cell-based; details: Hepatitis C virus subtype 1a; Huh-7
T1 sequence (whole entry): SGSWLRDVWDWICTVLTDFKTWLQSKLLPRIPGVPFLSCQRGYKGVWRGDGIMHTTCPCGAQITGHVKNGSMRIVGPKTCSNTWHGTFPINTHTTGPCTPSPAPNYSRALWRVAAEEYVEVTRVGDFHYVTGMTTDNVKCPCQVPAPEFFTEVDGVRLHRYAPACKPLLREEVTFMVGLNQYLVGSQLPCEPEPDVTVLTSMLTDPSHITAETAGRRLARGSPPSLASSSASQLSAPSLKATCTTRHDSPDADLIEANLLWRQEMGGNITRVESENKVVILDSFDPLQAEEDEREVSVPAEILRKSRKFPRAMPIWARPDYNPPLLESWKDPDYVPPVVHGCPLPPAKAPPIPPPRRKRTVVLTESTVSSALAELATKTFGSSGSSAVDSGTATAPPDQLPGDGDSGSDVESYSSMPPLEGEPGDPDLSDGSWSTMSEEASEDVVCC

[19] = Drug uptake in dog at 5 mg/kg, po measured at 24 hrs post dose by LC/MS method; format: ADME, organism-based, Canis lupus familiaris; details: in vivo, read-out: Drug uptake
[20] = system: Hepatitis C virus subtype 1a; assay: Selectivity ratio for EC90 for HCV genotype-1a NS5A L31V mutant to EC90 for HCV genotype-1a NS5A
[21] = Oral bioavailability in dog at 5 mg/kg measured after 24 hrs by LC/MS method; format: ADME, organism-based, Canis lupus familiaris; details: in vivo
[22] = AUC (0 to t) in rat at 10 mg/kg, po measured after 24 hrs by LC/MS method; format: ADME, organism-based; set-up: dose 10 mg/kg, time < 24 hr, route oral; details: in vivo
[23] = system: Nonstructural protein 5A (Hepatitis C virus), Q5L478 [UNDEFINED MUTATION]; assay: Inhibition of HCV genotype-1a NS5A Q30R mutant infected in human HuH7 cells by luciferase reporter gene assay; format: cell-based; details: Hepatitis C virus subtype 1a; Huh-7
[24] = system: Huh-7; assay: Inhibition of HCV genotype-2a NS5A infected in human HuH7 cells by luciferase reporter gene assay; format: cell-based; details: Hepatitis C virus subtype 2a
[25] = system: Huh-7; assay: Inhibition of HCV genotype-6d NS5A infected in human HuH7 cells by luciferase reporter gene assay; format: cell-based; details: Hepatitis C virus subtype 6d
[26] = system: T2, Nonstructural protein 5A (Hepatitis C virus), Q5L478 [Y93C]; assay: Inhibition of HCV genotype-1a NS5A Y93C mutant infected in human HuH7 cells by luciferase reporter gene assay; format: cell-based; details: Hepatitis C virus subtype 1a; Huh-7
T2 sequence (whole entry): T1 sequence (whole entry) with H93C

[27] = system: Huh-7; assay: Inhibition of HCV genotype-1b NS5A infected in human HuH7 cells by luciferase reporter gene assay; format: cell-based; details: Hepatitis C virus subtype 1b
[28] = system: Huh-7; assay: Inhibition of HCV genotype-6 NS5A infected in human HuH7 cells by luciferase reporter gene assay; format: cell-based; details: Hepatitis C virus genotype 6
[29] = system: Huh-7; assay: Inhibition of HCV genotype-5a NS5A infected in human HuH7 cells by luciferase reporter gene assay; format: cell-based; details: Hepatitis C virus subtype 5a
[30] = system: T1, Nonstructural protein 5A (Hepatitis C virus), Q5L478 [Y93H]; assay: Inhibition of HCV genotype-1b NS5A Y93H mutant infected in human HuH7 cells by luciferase reporter gene assay; format: cell-based; details: Hepatitis C virus subtype 1b; Huh-7
[31] = Oral bioavailability in rhesus monkey at 5 mg/kg measured at 48 hrs post dose by LC/MS/MS method; format: ADME, organism-based, Macaca mulatta; details: in vivo
[32] = Plasma clearance in rhesus monkey at 1 mg/kg, iv measured after 48 hrs by LC/MS/MS method; format: ADME, organism-based, Macaca mulatta
[33] = Half life in rhesus monkey at 1 mg/kg, iv by LC/MS/MS method; format: ADME, organism-based, Macaca mulatta; details: in vivo
[34] = AUC (0 to t) in rhesus monkey at 5 mg/kg, po measured after 48 hrs by LC/MS/MS method; format: ADME, organism-based, Macaca mulatta; set-up: dose 5 mg/kg, time < 48 hr, route oral; details: in vivo

| SMILES | clearance [1] [mL/min/kg] | concentration at 24 h [2] [nM] | bioavailability [3] [%] | EC90 [4] [nM] | EC90 [5] [nM] | Selectivity ratio [6] | AUC at 24 h [7] [µM·h] | EC90 [8] [nM] | half-life [9] [h] | EC90 [10] [nM] | half-life [11] [h] | clearance [12] [mL/min/kg] | Selectivity ratio [13] | Selectivity ratio [14] | AUC(0-t) at 24 h [15] [µM·h] | Selectivity ratio [16] | EC90 [17] [nM] | EC90 [18] [nM] | concentration at 24 h [19] [nM] | bioavailability [21] [%] | further results |
| --- | --- | --- | --- | --- | --- | --- | --- | --- | --- | --- | --- | --- | --- | --- | --- | --- | --- | --- | --- | --- | --- |
| CCc1ccc([C@@H]2Oc3cc(-c4cnc([C@@H]5CCCN5C(=O)[C@@H](NC(=O)OC)C(C)C)[nH]4)cc(F)c3-c3cc4cc(-c5cnc([C@@H]6CCCN6C(=O)[C@@H](NC(=O)OC)C(C)C)[nH]5)ccc4n32)s1 | 1.7 | 17 | 3 | 0.003 | 0.9 | 1 | 0.7 | 0.067 | 6.4 | 0.003 | 15 | 8 | 1 | 300 | 13.8 | 20 | 0.002 | 0.06 | 172 | 21 | Selectivity ratio [20]: 22 |
| COC(=O)N[C@H](C(=O)N1CCC[C@H]1c1ncc(-c2cc(F)c3c(c2)OC(c2cnc(C4CC4)s2)n2c-3cc3cc(-c4cnc([C@@H]5C[C@H]6C[C@H]6N5C(=O)[C@@H](NC(=O)OC)C(C)C)[nH]4)ccc32)[nH]1)C(C)C (stereo not given in full) | – | 1.9 | 4 | 0.006 | 0.076 | – | – | 0.007 | 3.9 | 0.006 | – | 12 | – | – | – | – | 0.011 | 0.021 | – | – | AUC(0-t) at 24 h [22]: 0.52 µM·h |
| COC(=O)N[C@H](C(=O)N1CCC[C@H]1c1ncc(-c2cc(F)c3c(c2)O[C@@H](c2cnc(C4CC4)s2)n2c-3cc3cc(-c4cnc([C@@H]5CCCN5C(=O)[C@@H](NC(=O)OC)C(C)C)[nH]4)ccc32)[nH]1)C(C)C [RUZASVIR] | 1.6 | 3 | 4 | 0.003 | 0.036 | 2 | 0.4 | 0.016 | 4.7 | 0.007 to 0.011 | 4 | 13 | 2 | 12 | 12.9 | 22 | 0.006 to 0.007 | 0.067 | 43 | 22 | EC90 [23]: 0.011 nM; EC90 [24]: 0.001 nM; EC90 [25]: 0.027 nM; EC90 [26]: 0.002 nM; EC90 [27]: 0.003 nM; EC90 [28]: 0.007 nM; EC90 [29]: 0.001 nM; EC90 [30]: 0.009 nM; Selectivity ratio [20]: 5 |
| COC(=O)N[C@H](C(=O)N1CCC[C@H]1c1ncc(-c2cc(F)c3c(c2)OC(c2ccc(C4CC4)s2)n2c-3cc3cc(-c4cnc([C@@H]5CCCN5C(=O)[C@@H](NC(=O)OC)C(C)C)[nH]4)ccc32)[nH]1)C(C)C (stereo not given in full) | 1.5 | 16 | 5 | 0.003 | 0.16 | 2 | 1.1 | 0.02 | 7 | 0.009 | 10 | 11 | 3 | 53 to 200 | 10.6 | 37 | 0.007 | 0.11 | 134 | 11 | – |
| COC(=O)N[C@H](C(=O)N1CCC[C@H]1c1ncc(-c2cc(F)c3c(c2)OC(c2cc(C(C)C)no2)n2c-3cc3cc(-c4cnc([C@@H]5CCCN5C(=O)[C@@H](NC(=O)OC)C(C)C)[nH]4)ccc32)[nH]1)C(C)C (stereo not given in full) | – | – | – | 0.002 | 0.92 | – | – | 0.056 | – | – | – | – | – | – | – | – | 0.019 | 0.42 | – | – | bioavailability [31]: 10%; clearance [32]: 2.2 mL/min/kg; half-life [33]: 10.2 h; AUC(0-t) at 48 h [34]: 3.9 µM·h |
| COC(=O)N[C@H](C(=O)N1CCC[C@H]1c1nc(-c2ccc3c(c2)O[C@@H](c2ccccc2)n2c-3cc3cc(-c4c[nH]c([C@@H]5CCCN5C(=O)[C@@H](NC(=O)OC)C(C)C)n4)ccc32)c[nH]1)C(C)C | – | – | – | 0.006 | 11 | – | – | – | – | 0.016 | – | – | – | – | – | – | 0.12 | – | – | – | EC90 [23]: 2.5 nM; EC90 [24]: 0.019 nM; EC90 [25]: 0.008 nM; EC90 [26]: 1.1 nM; EC90 [27]: 0.006 nM; EC90 [28]: 0.017 nM; EC90 [29]: 0.002 nM; EC90 [30]: 0.89 nM |
| COC(=O)N[C@H](C(=O)N1CCC[C@H]1c1ncc(-c2ccc3c(c2)O[C@@H](c2ccc(C4CC4)cc2)n2c-3cc3cc(-c4cnc([C@@H]5CCCN5C(=O)[C@@H](NC(=O)OC)C(C)C)[nH]4)ccc32)[nH]1)C(C)C | – | – | – | 0.004 | 1 | – | – | – | – | – | – | – | – | 300 | – | 1900 | – | 8 | – | – | – |
| COC(=O)N[C@H](C(=O)N1CCC[C@H]1c1ncc(-c2cc(F)c3c(c2)OC(c2cccs2)n2c-3cc3cc(-c4cnc([C@@H]5CCCN5C(=O)[C@@H](NC(=O)OC)C(C)C)[nH]4)ccc32)[nH]1)C(C)C (mixture of isomers) | – | – | – | 0.03 | 8 to 8.2 | – | – | 0.76 | – | – | – | – | – | 267 | – | 100 | 0.016 | 3 to 3.4 | – | – | – |
| CCCc1ncc(C2Oc3cc(-c4cnc([C@@H]5CCCN5C(=O)[C@@H](NC(=O)OC)C(C)C)[nH]4)cc(F)c3-c3cc4cc(-c5cnc([C@@H]6CCCN6C(=O)[C@@H](NC(=O)OC)C(C)C)[nH]5)ccc4n32)s1 (stereo not given in full) | 1.8 | 4 | 7 | 0.001 | 0.14 | 2 | 0.8 | 0.02 | 4.3 | 0.01 | 11.5 | 16 | 10 | 140 | 11 | 88 | 0.002 | 0.088 | 76.7 | 23 | Selectivity ratio [20]: 20 |
